Tests used:
p110 delta = target: T1, p110 delta (Homo sapiens, UniProt O00329); assay: PI3K isoform inhibition assay (fluorescence polarization), p110 delta; type: biochemical; settings: Ki apparent, Morrison equation; 25 μM ATP, 10 μM PIP2
T1 construct: purchased Upstate Group, Millipore; Dundee, UK
Method: (§1) Determination of the activity of PI3 kinase activity of Formula I compounds is possible by a number of direct and indirect detection methods.
(§2) PI3K enzymatic activity was assayed by measuring the amount of product phosphatidylinositol 3,4,5-phosphate (PIP3) formed from substrate 4,5 phosphatidylinositol 4,5-phosphate (PIP2) using a fluorescence polarization displacement assay. The decrease in fluorescence polarization of a fluorescent PIP3 probe is measured as it is displaced from a PIP3-binding protein GRP-1 detector by PI3K-catalyzed product. […] The kinase reactions were initiated by the addition of 40 ng/mL p110α/p85α, 300 ng/mL p110β/p85α, 40 ng/mL p110γ, or 40 ng/mL p110δ/p85α (Upstate Group, Millipore; Dundee, UK), and 10 μM PIP2 (Echelon Biosciences) to the wells. […] After 60 minutes of incubation at room temperature to allow equilibration of labeled and unlabeled PIP3 binding, the parallel and perpendicular components of the fluorescence emissions from each sample were measured at an excitation wavelength of 530 nm and an emission wavelength of 590 nm using an Envision fluorescent plate reader with a rhodamine filter (PerkinElmer Life and Analytical Sciences; Wellesley, Mass.). The assay is capable of detecting 0.1-2.0 μM PIP3 product. The Ki apparent values were obtained by fitting the dose-dependent inhibition data to the Morrison equation for tight-binding, competitive inhibitors. Reference: R. A. Copeland, Enzymes. “A Practical Introduction to Structure, Mechanism and Data Analysis”.
The Formula I compound was serially diluted in 100% DMSO. The kinase reaction was incubated for 1 h at room temperature, and the reaction was terminated by the addition of PBS. IC50 values were subsequently determined using sigmoidal dose-response curve fit (variable slope). […]

p110 alpha = target: T2, p110 alpha (Homo sapiens, UniProt P42336); assay: PI3K isoform inhibition assay (fluorescence polarization), p110 alpha; type: biochemical; settings: delta/alpha selectivity ratio
T2 construct: purchased Upstate Group, Millipore; Dundee, UK
T2 sequence (P42336 whole entry, species assumed, canonical isoform): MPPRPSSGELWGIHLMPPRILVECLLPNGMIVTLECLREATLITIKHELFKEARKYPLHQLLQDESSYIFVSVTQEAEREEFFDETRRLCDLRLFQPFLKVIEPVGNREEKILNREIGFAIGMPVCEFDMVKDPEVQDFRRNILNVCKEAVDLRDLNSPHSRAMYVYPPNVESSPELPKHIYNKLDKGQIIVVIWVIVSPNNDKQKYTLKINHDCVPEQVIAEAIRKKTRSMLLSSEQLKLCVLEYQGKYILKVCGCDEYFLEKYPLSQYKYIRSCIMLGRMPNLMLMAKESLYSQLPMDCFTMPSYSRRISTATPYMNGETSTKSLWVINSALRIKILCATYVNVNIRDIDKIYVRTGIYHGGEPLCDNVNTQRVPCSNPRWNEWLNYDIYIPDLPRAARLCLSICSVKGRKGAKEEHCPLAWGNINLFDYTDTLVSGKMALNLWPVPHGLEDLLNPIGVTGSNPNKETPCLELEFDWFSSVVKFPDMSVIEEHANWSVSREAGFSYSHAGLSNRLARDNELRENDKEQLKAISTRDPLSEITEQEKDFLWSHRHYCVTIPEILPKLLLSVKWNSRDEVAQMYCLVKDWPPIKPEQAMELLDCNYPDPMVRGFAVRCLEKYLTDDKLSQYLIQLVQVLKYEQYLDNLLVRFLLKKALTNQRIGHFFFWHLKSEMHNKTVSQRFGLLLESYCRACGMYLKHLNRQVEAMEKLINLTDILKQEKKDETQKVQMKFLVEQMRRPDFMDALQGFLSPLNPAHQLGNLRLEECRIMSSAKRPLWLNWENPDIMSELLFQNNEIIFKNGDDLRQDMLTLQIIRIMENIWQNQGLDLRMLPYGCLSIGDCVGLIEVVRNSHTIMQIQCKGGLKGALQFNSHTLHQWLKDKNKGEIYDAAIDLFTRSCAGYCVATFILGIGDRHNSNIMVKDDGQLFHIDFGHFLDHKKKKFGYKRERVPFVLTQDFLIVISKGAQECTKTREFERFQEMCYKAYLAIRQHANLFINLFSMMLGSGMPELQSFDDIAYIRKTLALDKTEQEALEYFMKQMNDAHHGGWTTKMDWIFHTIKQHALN
T2 sequence (P27986 whole entry partner, species assumed, canonical isoform): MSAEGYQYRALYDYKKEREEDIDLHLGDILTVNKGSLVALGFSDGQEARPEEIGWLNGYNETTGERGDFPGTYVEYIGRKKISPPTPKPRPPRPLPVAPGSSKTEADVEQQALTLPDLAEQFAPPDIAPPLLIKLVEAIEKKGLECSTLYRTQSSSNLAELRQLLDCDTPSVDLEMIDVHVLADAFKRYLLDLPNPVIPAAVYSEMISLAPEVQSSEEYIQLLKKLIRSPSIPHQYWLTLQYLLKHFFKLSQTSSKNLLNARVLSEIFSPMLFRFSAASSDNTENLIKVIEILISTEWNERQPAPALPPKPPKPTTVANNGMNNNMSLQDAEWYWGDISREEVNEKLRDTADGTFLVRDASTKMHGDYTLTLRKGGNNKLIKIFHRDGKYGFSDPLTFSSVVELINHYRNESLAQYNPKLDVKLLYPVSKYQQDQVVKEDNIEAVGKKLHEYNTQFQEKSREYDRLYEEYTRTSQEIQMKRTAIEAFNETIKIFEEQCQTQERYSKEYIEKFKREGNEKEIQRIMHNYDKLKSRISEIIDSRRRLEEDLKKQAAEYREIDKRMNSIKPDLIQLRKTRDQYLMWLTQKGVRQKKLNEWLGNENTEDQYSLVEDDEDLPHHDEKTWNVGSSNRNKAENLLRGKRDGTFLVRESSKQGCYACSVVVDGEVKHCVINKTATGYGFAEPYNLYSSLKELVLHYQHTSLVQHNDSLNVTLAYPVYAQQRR
Method: as §1, §2
The same protocol may be used to establish Ki values for p110α (alpha) PI3K binding.
The four Class I PI 3-kinases are cloned into baculovirus vectors as follows: […]

[1] = test system: production of CD69 by B lymphocytes in human whole blood; assay: CD69 Whole Blood Assay; type: cell-based; settings: Lymphocyte; human whole blood activated with goat F(ab')2 anti-human IgM, 20 hours
Text: There is good evidence that B-cells play a key role in the pathogenesis of autoimmune and/or inflammatory disease. Protein-based therapeutics that deplete B cells such as Rituxan are effective against autoantibody-driven inflammatory diseases such as rheumatoid arthritis (Rastetter et al. (2004) Annu Rev Med 55:477). CD69 is the early activation marker in leukocytes including T cells, thymocytes, B cells, NK cells, neutrophils, and eosinophils. The CD69 human whole blood assay (Example 903) determines the ability of compounds to inhibit the production of CD69 by B lymphocytes in human whole blood activated by crosslinking surface IgM with goat F(ab′)2 anti-human IgM.
Human blood is obtained from healthy volunteers, with the following restrictions: 1 week drug-free, non-smokers. Blood (approximately 20 mls to test 8 compounds) is collected by venipuncture into Vacutainer tubes with sodium heparin.
Solutions of Formula I compounds at 1000 or 2000 μM in PBS (20×), are diluted by three-fold serial dilutions in 10% DMSO in PBS for a nine point dose-response curve. An aliquot of 5.5 μl of each compound is added in duplicate to a 2 ml 96-well plate; 5.5 μl of 10% DMSO in PBS is added as control and no-stimulus wells. Human whole blood—HWB (100 μl) is added to each well. After mixing the plates are incubated at 37° C., 5% CO2, 100% humidity for 30 minutes. Goat F(ab′)2 anti-human IgM (10 μl of a 500 μg/ml solution, 50 μg/ml final) is added to each well (except the no-stimulus wells) with mixing and the plates are incubated for an additional 20 hours. At the end of the 20 hour incubation, samples are incubated with fluorescent labeled antibodies for 30 minutes, at 37° C., 5% CO2, 100% humidity. Include induced control, unstained and single stains for compensation adjustments and initial voltage settings. Samples are then lysed with Pharmingen Lyse™ according to the manufacturer's instructions. Samples are then transferred to a 96 well plate suitable to be run on the AMS 96 well system on the BD Calibur FACS cell sorter instrument. Data acquired and Mean Fluorescence Intensity values were obtained using Cell Quest Software. Results are initially analyzed by FACS analysis software (Flow Jo). The IC50 values are calculated by ActivityBase™ using Xlfit™ version 3, equation 201.

T1 sequence (O00329 whole entry, canonical isoform): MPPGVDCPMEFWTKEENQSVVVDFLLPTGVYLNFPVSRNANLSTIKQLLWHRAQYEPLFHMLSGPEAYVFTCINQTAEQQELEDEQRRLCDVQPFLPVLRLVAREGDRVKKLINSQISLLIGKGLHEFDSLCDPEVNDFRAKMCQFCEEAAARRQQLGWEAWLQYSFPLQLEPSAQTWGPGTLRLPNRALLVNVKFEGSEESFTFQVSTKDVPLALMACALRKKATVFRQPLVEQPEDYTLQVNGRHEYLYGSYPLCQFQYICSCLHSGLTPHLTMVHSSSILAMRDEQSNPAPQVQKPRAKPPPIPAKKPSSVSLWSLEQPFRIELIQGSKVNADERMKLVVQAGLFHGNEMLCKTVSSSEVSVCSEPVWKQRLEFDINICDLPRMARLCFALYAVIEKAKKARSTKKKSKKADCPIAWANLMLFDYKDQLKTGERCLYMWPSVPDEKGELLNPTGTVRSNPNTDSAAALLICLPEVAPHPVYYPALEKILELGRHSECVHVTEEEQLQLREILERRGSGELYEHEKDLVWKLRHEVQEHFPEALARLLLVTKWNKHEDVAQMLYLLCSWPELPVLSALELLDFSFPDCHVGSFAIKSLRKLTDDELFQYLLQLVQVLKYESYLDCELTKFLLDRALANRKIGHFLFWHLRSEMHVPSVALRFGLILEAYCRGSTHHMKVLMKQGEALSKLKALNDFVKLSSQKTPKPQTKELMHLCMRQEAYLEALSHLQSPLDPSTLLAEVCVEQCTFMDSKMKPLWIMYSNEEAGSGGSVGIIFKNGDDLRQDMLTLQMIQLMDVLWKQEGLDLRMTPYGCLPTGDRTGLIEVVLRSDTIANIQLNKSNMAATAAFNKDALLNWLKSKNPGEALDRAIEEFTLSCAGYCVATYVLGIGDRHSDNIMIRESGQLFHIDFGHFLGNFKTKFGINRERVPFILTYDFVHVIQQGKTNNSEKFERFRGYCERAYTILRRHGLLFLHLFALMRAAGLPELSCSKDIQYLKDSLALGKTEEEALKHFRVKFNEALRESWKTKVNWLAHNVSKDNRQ
T1 sequence (P27986 whole entry partner, canonical isoform): as the sequence (P27986 whole entry partner, species assumed, canonical isoform) above

Compound | Ki (p110 delta) [nM] | Ki p110 alpha/ Ki p110 delta (p110 alpha) | IC50 [1] [nM]
CCc1nc2ccccc2n1-c1nc(N2CCOCC2)c2nc(OC3CNC3)n(C)c2n1 [Compound 133, 4-(8-(azetidin-3-yloxy)-2-(2-ethyl-1H-benzo[d]imidazol-1-yl)-9-methyl-9H-purin-6-yl)morpholine] | 8.53 | 27 | 10.8
CCc1nc2ccccc2n1-c1nc(N2CCOCC2)c2nc(OC3CCN(C4CCOCC4)CC3)n(C)c2n1 [Compound 101, 4-(2-(2-ethyl-1H-benzo[d]imidazol-1-yl)-9-methyl-8-(1-(tetrahydro-2H-pyran-4-yl)piperidin-4-yloxy)-9H-purin-6-yl)morpholine] | 1.84 | 78 | 35.4
CC(C)C(=O)N1CC(Oc2nc3c(N4CCOCC4)nc(-n4c(C(C)C)nc5ccccc54)nc3n2C)C1 [Compound 107, 1-(3-(2-(2-isopropyl-1H-benzo[d]imidazol-1-yl)-9-methyl-6-morpholino-9H-purin-8-yloxy)azetidin-1-yl)-2-methylpropan-1-one] | 0.38 | 173 | 8.3
CC(C)c1nc2ccccc2n1-c1nc(N2CCOCC2)c2nc(OC3CN(CC(C)(C)O)C3)n(C)c2n1 [Compound 105, 1-(3-(2-(2-isopropyl-1H-benzo[d]imidazol-1-yl)-9-methyl-6-morpholino-9H-purin-8-yloxy)azetidin-1-yl)-2-methylpropan-2-ol] | 2.03 | 93 | 28.1
CC(C)c1nc2ccccc2n1-c1nc(N2CCOCC2)c2nc(OC3CN(C4CCS(=O)(=O)CC4)C3)n(C)c2n1 [Compound 103, 4-(2-(2-isopropyl-1H-benzo[d]imidazol-1-yl)-9-methyl-8-(1-(1,1-dioxo-tetrahydro-2H-thiopyran-4-yl)azetidin-3-yloxy)-9H-purin-6-yl)morpholine] | 0.464 | 256 | 3
CCc1nc2ccccc2n1-c1nc(N2CCOCC2)c2nc(OC3CN(C(=O)C(C)C)C3)[nH]c2n1 [Compound 128, 1-(3-(2-(2-ethyl-1H-benzo[d]imidazol-1-yl)-6-morpholino-9H-purin-8-yloxy)azetidin-1-yl)-2-methylpropan-1-one] | 0.629 | 141 | 15.9
CC(C)C(=O)N1CC(Oc2nc3c(N4CCOCC4)nc(-n4c(N(C)C)nc5ccccc54)nc3n2C)C1 [Compound 131, 1-(3-(2-(2-(dimethylamino)-1H-benzo[d]imidazol-1-yl)-9-methyl-6-morpholino-9H-purin-8-yloxy)azetidin-1-yl)-2-methylpropan-1-one] | 3.65 | 180 | 14.6

— US8293736B2, “Purine compounds selective for PI3K P110 delta, and methods of use” (F. Hoffmann la Roche AG, priority 2010, dated 2012)
